This note sets out measurements from patent publication US11672786B2, “Methods of treating diseases associated with repeat instability” (The Hospital for Sick Children, priority 2016, dated 2023).

Assay [1] has as its system clustered short slip-outs on (CAG)50●(CTG)50 (S-DNA). The experiment in a line: band-shift NA-DNA binding, clustered short slip-outs (S-DNA). More on the design: species or system human. Conditions: NA 0.15-50 μM, 4% polyacrylamide gel. The source says: (§1) FIG. 2 are the results of experiments showing that NA binds to long CAG slip-outs. […] The (CAG)n DNA sequence (left) can fold into an hairpin structure involving mismatched A-A pair flanking C-G base pairs (middle). NA molecules can intercalate into the DNA helix, with the 2-amino-1,8-naphthyridine moiety (in red) hydrogen bonding to guanine and 8-azaquinolone moiety (in blue) hydrogen bonding to adenine. […] Long slip-outs extruded as a single slip-out from a fully base-paired backbone of (CTG)n●(CAG)n, as described (Pearson et al., 2002, Nuc. Acids Res., 30:4534-47). DNAs were mixed with increasing concentrations of NA (0.15 μM, 0.75 μM, 7.5 μM and 50 μM) and resolved on 4% polyacrylamide gels. All lanes are from the same gel, and they were separated for clarity. NA-DNA complexes are shown by brackets, free DNA is indicated by arrowheads. […] The relative migration was measured for the linear and the three slip-outs substrates as the ratio of the migration distance of each NA-DNA complex to the migration distance of the free DNA. The migration distance was measured from the well to a consistent center point of each band. […]

Assay [2] deals with long (CAG)20 slip-outs from (CAG)50●(CTG)30. Put plainly: band-shift NA-DNA binding, long (CAG)20 slip-out. More on the design: species or system human. To be noted: NA 0.15-50 μM, 4% polyacrylamide gel.
Text: as §1

Assay [3] concerns plasmids pDM79EF, pDM79HF, pKN16 with SV40 origin of replication. The experiment in a line: in vitro SV40 replication assay by HeLa cell extracts. Conditions: NA 7.5 μM or 15 μM. The assay is classed as biochemical, human.
Procedure: Three circular plasmids containing the SV40 origin of replication, and an expanded (CAG)79●(CTG)79 repeat tract (pDM79EF and pDM79HF) or no repeats (pKN16), were replicated in vitro by human HeLa cell extracts and added recombinant SV40 T-Ag, without or with NA (7.5 μM or 15 μM) treatment. […] Replication products were purified and linearized with BanHI. An equal portion of the reaction material was also digested with BamHI and DpnI; DpnI digests un-replicated and partially-replicated material, as shown in the schematic (top figure).
These templates containing repeats (pDM79EF and pDM79HF) and another substrate with SV40-ori and no-repeats (pKN16) were replicated in vitro by HeLa cell extract adding [α-^32P]dCTP and T-Antigen, as described in detail in Panigrahi et al. (2002, J. Biol. Chem., 277:13926-34) and Cleary et al. (2002, Nat. Genet., 31(1):37-46). Replication reaction was performed without or with NA (7.5 μM and 15 μM). Radioactive replication products were purified, linearized with BamHI, and treated with DpnI (for details see FIG. 9). […] Equal quantities of reaction products were resolved by electrophoresis on a 15-cm 1% agarose gel. The gel was run for 16 h at 4 V/cm in TBE buffer, dried, and exposed to Kodak film.

For naphthyridine-azaquinolone, the “NA binding (band-shift)” value in assay [1] is reported as “can bind NA to a limited degree”; in assay [2] it was “extensively bound”. In assay [3], the “effect on replication efficiency and replication fork progression” value is reported as “does not affect replication efficiency or replication fork progression”.
